In BindingDB's records for doi:10.7270/Q2M32T6M (Vanderbilt Screening Center for GPCRs, Ion Channels and …, 2009) one finds EC50 data, which are given here for 51 compounds.

The structures appear in SMILES notation.

One assay deals with T1, Solute carrier family 12 member 5 (Homo sapiens, UniProt Q9H2X9).
T1 sequence (Q9H2X9 whole entry): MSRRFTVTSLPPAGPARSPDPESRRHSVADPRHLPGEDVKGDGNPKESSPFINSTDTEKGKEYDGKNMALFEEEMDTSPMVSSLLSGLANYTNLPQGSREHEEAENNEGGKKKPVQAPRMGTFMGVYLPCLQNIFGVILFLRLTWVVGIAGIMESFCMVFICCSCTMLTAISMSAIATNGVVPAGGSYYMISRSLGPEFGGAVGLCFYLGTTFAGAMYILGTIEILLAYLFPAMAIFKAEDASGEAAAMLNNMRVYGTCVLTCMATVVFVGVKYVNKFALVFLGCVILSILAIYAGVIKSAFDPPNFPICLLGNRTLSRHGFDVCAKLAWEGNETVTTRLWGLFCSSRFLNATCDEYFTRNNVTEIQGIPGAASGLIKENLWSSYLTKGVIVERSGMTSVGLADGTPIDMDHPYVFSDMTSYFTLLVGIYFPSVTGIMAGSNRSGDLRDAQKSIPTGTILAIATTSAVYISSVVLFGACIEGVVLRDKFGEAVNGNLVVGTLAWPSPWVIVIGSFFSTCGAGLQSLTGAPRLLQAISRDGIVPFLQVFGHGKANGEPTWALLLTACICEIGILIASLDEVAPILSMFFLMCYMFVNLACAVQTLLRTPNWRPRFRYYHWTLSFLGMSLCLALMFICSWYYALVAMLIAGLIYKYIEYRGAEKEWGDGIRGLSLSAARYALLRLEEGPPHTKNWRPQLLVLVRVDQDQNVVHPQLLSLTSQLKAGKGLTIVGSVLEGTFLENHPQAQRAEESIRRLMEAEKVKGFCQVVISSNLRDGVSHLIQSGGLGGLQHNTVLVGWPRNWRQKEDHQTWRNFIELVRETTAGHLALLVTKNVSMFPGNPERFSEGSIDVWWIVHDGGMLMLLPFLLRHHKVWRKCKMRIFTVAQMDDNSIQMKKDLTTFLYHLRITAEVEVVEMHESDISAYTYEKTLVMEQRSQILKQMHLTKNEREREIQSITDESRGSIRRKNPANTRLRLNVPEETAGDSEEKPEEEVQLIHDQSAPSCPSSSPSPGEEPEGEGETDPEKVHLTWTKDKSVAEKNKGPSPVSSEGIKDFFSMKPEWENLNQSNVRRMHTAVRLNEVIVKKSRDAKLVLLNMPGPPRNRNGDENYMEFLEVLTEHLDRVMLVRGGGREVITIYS
Nature of the assay: KCC2 modulator potency by thallium flux, dose response, cell-based, HEK293 KCC2, FluoZin-2 fluorescence (AID 1736).
Details: not given
The EC50 is the concentration at which the effect is half-maximal. Lower therefore signals greater potency. `O=C(O)CC/C(=C\c1ccccc1[N+](=O)[O-])c1nc2ccccc2s1` [(E)-4-(1,3-benzothiazol-2-yl)-5-(2-nitrophenyl)-4-pentenoic acid] returned a half-maximal effective concentration (EC50) of 350 µM.

For the compound `O=C(O)CC/C(=C\c1ccc(N2CCCC2)c([N+](=O)[O-])c1)c1nc2ccccc2s1` [(E)-4-(1,3-benzothiazol-2-yl)-5-(3-nitro-4-pyrrolidin-1-yl-phenyl)pent-4-enoic acid], the EC50 was 233 µM.

As for `O=C(O)CC/C(=C\c1ccc(N2CCOCC2)c([N+](=O)[O-])c1)c1nc2ccccc2s1` [(E)-4-(1,3-benzothiazol-2-yl)-5-(4-morpholin-4-yl-3-nitro-phenyl)pent-4-enoic acid], it took 12.2 µM to reach a half-maximal effect (EC50).

As to `COc1ccccc1N1CCN(C(=S)NC(=O)/C=C/c2ccccc2)CC1` [(E)-N-[4-(2-Methoxy-phenyl)-piperazine-1-carbothioyl]-3-phenyl-acrylamide], the half-maximal effective concentration (EC50) worked out at 11.9 µM.

With `CC[C@H](CO)Nc1nc(Nc2cccc(Cl)c2)c2ncn(C(C)C)c2n1` [(R)-2-(6-(3-chlorophenylamino)-9-isopropyl-9H-purin-2-ylamino)butan-1-ol], it took 10.6 µM to reach a half-maximal effect (EC50).

In turn, `O=C(CNC(=O)/C(=C/c1ccccc1)NC(=O)c1ccc(Br)cc1)OCc1ccccc1` [(phenylmethyl) 2-[[(Z)-2-[(4-bromophenyl)carbonylamino]-3-phenyl-prop-2-enoyl]amino]ethanoate] gave an EC50 of 2 µM.

As for `Cc1ccc2c(c1)nnn2C1CCN(S(=O)(=O)c2cccc(S(=O)(=O)N(C)C)c2)CC1` [MLS000033642], the concentration giving a half-maximal response (EC50) came out at 6.91 µM.

The compound `O=C(CSc1ncccc1-c1nc2ccccc2[nH]1)N1CCN(c2ccccc2F)CC1` [MLS000033700] gave a concentration giving a half-maximal response (EC50) of 26.5 µM.

On to `O=C(OC1CCc2ccccc2C1=O)c1ccccc1O` (stereo unspecified) [MLS000051417], for which the half-maximal effective concentration (EC50) turned out to be 26.5 µM.

`Cc1nn(-c2nc3ccccc3[nH]2)c(N)c1-c1ccccc1` [MLS000063763] showed an EC50 of 24.4 µM.

In turn, `Cc1nonc1NC(=O)CSc1ccc(-c2ccccc2)nn1` [MLS000074514] showed an EC50 of 1.56 µM.

`O=C(NCc1cccs1)c1nc2c(nnn2Cc2ccc(F)cc2)c(=O)[nH]1` [MLS000074753] gave a concentration for a half-maximal effect (EC50) of 41100 µM.

`CS(=O)(=O)N(CC(=O)N1CCN(c2ccccc2)CC1)c1cccc(Br)c1` [MLS000110474] registered a concentration giving a half-maximal response (EC50) of 3.74 µM.

In turn, `Cn1c(C(=O)NCCCN2CCN(c3ccccc3F)CC2)cc2c(=O)n(C)c3ccccc3c21` [MLS000118127] came in with an EC50 of 4.93 µM.

As for `Cn1c(C(=O)NCCN2CCN(c3ccccc3F)CC2)cc2c(=O)n(C)c3ccccc3c21` [MLS000118132], the EC50 came out at 1.74 µM.

The compound `CCN(CC)S(=O)(=O)c1ccc(NC(=O)CSc2ncnc3ccccc23)cc1` [MLS000393282] showed an EC50 of 3 µM.

`CC1Cc2ccccc2N1C(=O)CN(C)S(=O)(=O)c1cccc2cccnc12` (stereo unspecified) [MLS000523063] yielded an EC50 of 17.5 µM.

As for `CS(=O)(=O)N(CC(=O)N1CCN(c2ccc(F)cc2)CC1)c1ccc(F)c(Cl)c1` [MLS000531433], the concentration for a half-maximal effect (EC50) amounted to 20.6 µM.

In turn, `Cc1ccc(C(=O)Nc2nc(=O)n(C(=O)c3ccccc3Cl)s2)cc1` [MLS000540480] registered a half-maximal effective concentration (EC50) of 3 µM.

Compound `O=C(NNc1nc(-c2ccccc2)cs1)c1ccccc1` [MLS000547345] returned an EC50 of 0.0106 µM.

`CCn1c(CCNC(=O)c2cccs2)nnc1SCC(=O)Nc1nc(-c2ccccc2)cs1` [MLS000548611] registered an EC50 of 19.1 µM.

The compound `O=[N+]([O-])c1ccccc1C=C[CH+][N-]n1c(-c2ccc(Cl)cc2)n[nH]c1=S` [MLS000555506] showed a concentration giving a half-maximal response (EC50) of 15.5 µM.

`O=C(CC(Cc1ccccc1)c1ccco1)NC1CCCCC1` (stereo unspecified) [MLS000556612] registered a concentration giving a half-maximal response (EC50) of 3.03 µM.

Compound `CC(=NNC(=O)c1ccc(Br)cc1)c1ccccc1` [MLS000558629] returned an EC50 of 2 µM.

The compound `Cc1nn2c(nc(O)c3ccccc32)c1C=O` [MLS000565386] gave an EC50 of 20.6 µM.

Take `Cc1nn(-c2ccc(F)cc2)c(C)c1NS(=O)(=O)c1ccc2ccccc2c1` [MLS000565745]: a half-maximal effect (EC50) was put at 2.64 µM.

The compound `CNC(=O)/C(=C\C=C\c1ccccc1)NC(=O)c1ccc([N+](=O)[O-])cc1` [MLS000570424] registered an EC50 of 3.38 µM.

The compound `CCn1c(SCC(=O)Nc2ccc(Cl)cc2)nc2nc3c(cc2c1=O)CCCC3` [MLS000589154] came in with a 50% effective concentration (EC50) of 45.5 µM.

For the compound `O=C(CSc1ccc(-c2cccs2)nn1)Nc1ccccc1F` [MLS000621184], the EC50 was 1.68 µM.

`O=C(C=Cc1ccccc1)CC(=O)c1ccccc1O` [MLS000627068] had an EC50 of 10 µM.

In the case of `O=C(NCc1nc(-c2ccccc2)cs1)c1ccccc1` [MLS000661971], it took 544 µM to reach a half-maximal effect (EC50).

With `CN(CC(=O)N1CCN(Cc2ccccc2)CC1)S(=O)(=O)c1cccc2nsnc12` [MLS000674627], a half-maximal effect (EC50) was put at 0.27 µM.

The compound `O=C(NC(=S)Nc1cccc2cccnc12)c1cccs1` [MLS000688132] gave a half-maximal effective concentration (EC50) of 0.156 µM.

`O=C(Nc1ccc2oc(-c3ccccc3F)nc2c1)c1ccco1` [MLS000709180] returned an EC50 of 827 µM.

As to `O=C(NC1CCCC1)C(c1ccncc1)N(Cc1ccco1)C(=O)c1ccc(-c2ccccc2)[nH]1` (stereo unspecified) [MLS000718066], the half-maximal effective concentration (EC50) came to 8.13 µM.

For the compound `CC(=O)NCC1CCCN(c2nc3nonc3nc2N(C)Cc2ccccc2)C1` (stereo unspecified) [MLS000731683], the response was half-maximal at 5.1 µM (EC50).

The compound `CCc1cc(C(=O)N2CCCC(CNC(=O)c3ccc(-c4ccccc4)cc3)C2)no1` (stereo unspecified) [MLS000731765] showed an EC50 of 3 µM.

The compound `CC(=O)NCCC(=O)N1CCCC(CNC(=O)c2ccc(-c3ccccc3)cc2)C1` (stereo unspecified) [MLS000733794] gave an EC50 of 38.4 µM.

In the case of `CSCCC(=O)N1CCCC(CNC(=O)c2ccc(-c3ccccc3)cc2)C1` (stereo unspecified) [MLS000733867], the half-maximal effective concentration (EC50) worked out at 21 µM.

Consider `O=C(NNc1nc(-c2ccc(F)cc2)cs1)c1ccccc1` [MLS000763429], for which the EC50 turned out to be 0.928 µM.

In turn, `O=C(NNc1nc(-c2ccccc2)cs1)c1cccs1` [MLS000858987] had an EC50 of 0.189 µM.

For the compound `CCC(CC)NC(=O)CSc1nnc(-c2c[nH]c3ccccc23)o1` [MLS001017505], the concentration giving a half-maximal response (EC50) stood at 2.04 µM.

Turning to `CNc1ccc2oc(C[C@H]3O[C@@]4(CC[C@H]3C)O[C@H]([C@H](C)C(=O)c3ccc[nH]3)[C@H](C)C[C@H]4C)nc2c1C(=O)O` [MLS001056783], the concentration for a half-maximal effect (EC50) came to 9.96 µM.

The assay is the same for the next values; noted with them: inactive by the depositor's call.
`O=C(NC(=S)NNC(=O)c1ccccc1O)c1ccco1` [Furan-2-carboxylic acid [N'-(2-hydroxy-benzoyl)-hydrazinocarbothioyl]-amide] gave an EC50 of 303 µM.

`O=C(NCCCCc1ccccc1)C1CC(c2ccccc2C(F)(F)F)=NO1` (stereo unspecified) [MLS000561910]: the response was half-maximal at 40.9 µM (EC50).

In turn, `C[C@@H](C(=O)Nc1ccc2ccccc2c1)[C@@H]1C[C@@]1(C)[C@@H](NC(=O)c1cccnc1)c1ccccc1` [MLS000563527] returned an EC50 of 16.9 µM.

The compound `CCOC(=S)N=C(NS(=O)(=O)c1ccc(C)cc1)c1ccccc1` [MLS000579749] gave an EC50 of 24.9 µM.

With `O=C(CCc1ccccc1)NC(=S)Nc1cccc(Br)c1` [MLS000583293], the half-maximal effective concentration (EC50) turned out to be 296 µM.

The compound `O=C(Nc1cc(S(=O)(=O)N2CCCCC2)ccc1Cl)c1ccccc1NS(=O)(=O)c1ccc(F)cc1` [MLS000707627] returned a 50% effective concentration (EC50) of 101 µM.

Turning to `Sc1ccc2ccccc2n1` [MLS001006012], the EC50 was 7.95 µM.

The compound `CNC(=O)C(=O)Nc1nc(C23CC4CC(CC(C4)C2)C3)cs1` [N'-[4-(1-adamantyl)-1,3-thiazol-2-yl]-N-methyl-ethanediamide] registered an EC50 of 22.6 µM.
